Laboratory results published in patent US10577383B2, “Macrocyclic inhibitors of myeloperoxidase” (BRISTOL-MYERS SQUIBB COMPANY, priority 2016, dated 2020).

How the values were obtained:
myeloperoxidase [1] = molecular target: T1, myeloperoxidase (Homo sapiens (Human), UniProt P05164); experiment: MPO Peroxidation Assay (Amplex Red Assay); assay type: biochemical; settings: MPO peroxidation activity, 100 mM KPi (pH 7.4), ten minute preincubation; potency ranges defined in nM
Procedure: MPO Peroxidation Assay (Amplex Red Assay)
MPO peroxidation activity was measured in 100 mM KPi (pH 7.4) by utilizing the non-fluorescent reagent Amplex Red (Invitrogen Cat. #A12222) which can be oxidized to the highly fluorescent resorufin. Amplex Red is oxidized by the peroxidase action of MPO to resorufin. Reactions were carried out in 50 μL total volume by adding a 25 μL mixture of 200 pM myeloperoxidase and 40 nM H2O2 (Sigma #349887) to 100 nL inhibitor in 100% DMSO in a 384 well Perkin Elmer Optiplate. Enzyme and compound were preincubated for ten minutes at room temperature.
After the ten minute preincubation, 25 μL of an Amplex Red mixture containing 200 μM Amplex Red and 10 mM H2O2 was added to the plate. Kinetic determinations were carried out immediately on a Perkin Elmer Envision (15 minute kinetic read, Ex: 535 nm, Em: 590 nm).
(§1) IC50 values were calculated by determining the slope of the linear portion of the kinetic trace (180-540 secs), and using that calculated slope to determine % inhibition occurring at each concentration of inhibitor using the following equation:
(§2) [formula] where A=minimal Y value (activity level of inhibited sample), B=maximal Y value (activity level of uninhibited sample), C=Log IC50, D=Hill Slope, x=concentration of inhibitor. MPO Chlorination Assay (APF Assay) MPO chlorination activity was measured in 100 mM KPi (pH 7.4) by utilizing the non-fluorescent reagent Aminophenyl fluorescein (APF, Invitrogen Cat. #A36003). APF is cleaved by (—OCl) to yield the fluorescent compound fluorescein. Reactions were carried out in 50 μL total volume by adding a 25 μL mixture of 200 pM myeloperoxidase and 120 mM NaCl to 100 nL inhibitor in 100% DMSO in a 384 well, non-binding surface clear bottom plate (Corning #3655). Enzyme, inhibitor, and chloride were preincubated for ten minutes at room temperature.

myeloperoxidase [2] = molecular target: T1, myeloperoxidase; experiment: MPO Chlorination Assay (APF Assay); assay type: biochemical; settings: MPO chlorination activity, 100 mM KPi (pH 7.4), 120 mM NaCl, ten minute preincubation; potency ranges defined in nM
Procedure: as §2
After the ten minute preincubation, 25 μL of an APF mixture containing […], 120 mM NaCl and 10 μM H2O2 was added to the plate using the internal dispensing system of a Hammatsu FDSS 6000. Kinetic determinations were carried out immediately on the FDSS 6000 (3 minute kinetic read, 1 read every second, ex: 485 nm, em: 535 nm). IC50 values for inhibitors were calculated by taking the slope of the linear portion of the kinetic measurement (20 seconds to 80-120 secs).
as §1
(§3) [formula] where A=minimal Y value (activity level of inhibited sample), B=maximal Y value (activity level of uninhibited sample), C=Log IC50, D=Hill Slope, x=concentration of inhibitor. EPX Bromination Assay

EPX = EPX (Homo sapiens (Human), UniProt P11678); experiment: EPX Bromination Assay; assay type: biochemical; settings: EPX bromination activity, 100 mM KPi (pH 7.4), 3-bromo tyrosine formation
Procedure: as §3
EPX bromination activity was measured in 100 mM KPi (pH 7.4) by monitoring the H2O2 catalyzed formation of 3-bromo tyrosine from tyrosine and potassium bromide. A 50 μl mixture of 0.6 μM EPX (Lee Biosolutions Cat. #342-60) was added to 100 nL inhibitor in 100% DMSO in a 384 well REMP plate. Enzyme and compound were preincubated for ten minutes at room temperature.
After the ten minute preincubation of enzyme and inhibitor, 25 μL of a mixture containing 400 μM tyrosine and 1200 μM potassium bromide was added to the plate containing enzyme and inhibitor, followed by the addition of 25 μl of 20 μM H2O2. The reaction was allowed to proceed for 15 minutes, at which time it was quenched with 10 μL of 20% TCA. The final concentrations of all components were 0.3 μM EPX, 100 μM tyrosine, […], 5 μM H2O2, 0.1% DMSO, 2.0% TCA.
IC50 values were determined by determining the peak areas of 3-bromo-tyrosine present at the end of the 15 minute reaction and fitting the data to:
[formula] where A=minimal Y value (activity level of inhibited sample), B=maximal Y value (activity level of uninhibited sample), C=Log IC50, D=Hill Slope, x=concentration of inhibitor.
Reversed-phase analysis was performed on a Waters Acquity Ultra Performance LC system using an Acquity UPLC BEH C18 […], 2.1×50 mm analytical column. The column was maintained at 60° C. Samples were eluted using a gradient of 0%-100% B over 2.5 minutes, followed by equilibration with 100% A for 1 minute where A consisted of 0.1% TFA and B consisted of 90% MeOH/0.1% TFA at a flow rate of 0.6 mL/min. The retention time of 3-bromo tyrosine was 1.22 min

[3] = the molecule shown is the open-chain precursor; cc_pd bond; 15-membered ring; PdCl2(dppf)-CH2Cl2/K2CO3; dioxane/H2O; 1.04 mM; 85.0 °C

Sequence of EPX (P11678 251-715): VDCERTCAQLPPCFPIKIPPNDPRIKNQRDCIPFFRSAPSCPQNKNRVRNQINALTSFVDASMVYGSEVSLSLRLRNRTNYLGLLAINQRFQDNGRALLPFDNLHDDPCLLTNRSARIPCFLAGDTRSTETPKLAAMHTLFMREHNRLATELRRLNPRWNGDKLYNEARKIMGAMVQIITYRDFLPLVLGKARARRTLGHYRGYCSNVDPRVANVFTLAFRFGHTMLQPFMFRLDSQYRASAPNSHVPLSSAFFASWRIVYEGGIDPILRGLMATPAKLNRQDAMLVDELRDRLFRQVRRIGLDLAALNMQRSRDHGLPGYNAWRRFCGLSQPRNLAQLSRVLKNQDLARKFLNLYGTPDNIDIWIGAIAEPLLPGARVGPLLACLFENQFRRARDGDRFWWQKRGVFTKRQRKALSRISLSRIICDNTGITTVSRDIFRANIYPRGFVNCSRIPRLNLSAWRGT
Sequence of EPX (P11678 140-250): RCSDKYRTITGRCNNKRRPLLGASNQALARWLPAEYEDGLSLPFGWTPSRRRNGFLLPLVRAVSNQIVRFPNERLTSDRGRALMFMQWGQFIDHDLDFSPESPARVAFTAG
T1 sequence (P05164 49-745): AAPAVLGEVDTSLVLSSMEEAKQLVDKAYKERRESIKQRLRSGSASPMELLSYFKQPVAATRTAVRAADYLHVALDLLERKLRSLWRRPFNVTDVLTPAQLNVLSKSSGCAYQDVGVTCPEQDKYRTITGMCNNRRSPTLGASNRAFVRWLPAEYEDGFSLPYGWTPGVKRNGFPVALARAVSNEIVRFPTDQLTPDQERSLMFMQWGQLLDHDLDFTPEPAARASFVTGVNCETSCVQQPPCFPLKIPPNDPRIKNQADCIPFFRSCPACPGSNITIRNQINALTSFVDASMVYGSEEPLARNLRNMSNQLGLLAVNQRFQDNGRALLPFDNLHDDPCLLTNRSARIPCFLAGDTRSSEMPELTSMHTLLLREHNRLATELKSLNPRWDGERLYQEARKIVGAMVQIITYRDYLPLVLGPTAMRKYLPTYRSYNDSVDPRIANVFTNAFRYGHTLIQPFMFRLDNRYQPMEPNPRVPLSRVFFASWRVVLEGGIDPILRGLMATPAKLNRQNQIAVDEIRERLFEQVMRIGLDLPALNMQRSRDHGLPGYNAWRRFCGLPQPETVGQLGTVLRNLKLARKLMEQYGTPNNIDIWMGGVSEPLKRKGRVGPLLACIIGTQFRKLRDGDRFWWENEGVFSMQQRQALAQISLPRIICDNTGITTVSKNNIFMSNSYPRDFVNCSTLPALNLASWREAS

SMILES | IC50 (myeloperoxidase [1]) [nM] | IC50 (myeloperoxidase [2]) [nM] | IC50 (EPX) [nM] | ring closure, isolated yield [3] [%]
Nc1cc(C2CCNCC3(CC3)COc3cccc(c3)Cn3cc2cn3)c2nn[nH]c2n1 (single isomer, unassigned) [Example 20, 7-{14′-Oxa-3′,4′,10′-triazaspiro[cyclopropane-1,12′-tricyclo[13.3.1.1^3,^6]icosane]-1′(19′),4′,6′(20′),15′,17′-pentaen-7′-yl}-3H-[1,2,3]triazolo[4,5-b]pyridin-5-amine] | 101 to 999 | 101 to 999 | 63 | –
Nc1cc(C2CCNCc3cccc(c3)COc3cccc(c3)Cn3cc2cn3)c2nn[nH]c2n1 (stereo not shown) [Example 2, 7-{18-oxa-3,4,10-triazatetracyclo[17.3.1.1^3,^6.1^12,^1^6]pentacosa-1(23),4,6(25),12,14,16(24),19,21-octaen-7-yl}-3H-[1,2,3]triazolo[4,5-b]pyridin-5-amine] | 101 to 999 | 1 to 100 | 190 | –
CC(C)(C)OC(=O)N(C/C=C(\I)c1cc(NC(c2ccccc2)(c2ccccc2)c2ccccc2)nc2c1nnn2C(c1ccccc1)(c1ccccc1)c1ccccc1)CCCOc1cccc(Cn2cc(B3OC(C)(C)C(C)(C)O3)cn2)c1 | – | – | – | 39.1

Further lines, with some results ahead:

IC50 (myeloperoxidase [1]) [nM] | IC50 (myeloperoxidase [2]) [nM] | IC50 (EPX) [nM] | SMILES | ring closure, isolated yield [3] [%]
101 to 999 | 1 to 100 | 220 | Nc1cc(C2CCNC3CCC(CC3)COc3cccc(c3)Cn3cc2cn3)c2nn[nH]c2n1 (stereo not shown) [Example 18, 7-{3-Oxa-10,11,17-triazatetracyclo[16.2.2.1^4,^8.1^1^0,^13]tetracosa-4,6,8(24),11,13(23)-pentaen-14-yl}-3H-[1,2,3]triazolo[4,5-b]pyridin-5-amine] | –
1 to 100 | 1 to 100 | 37 | Nc1cc(C2CCNCCc3cccc(c3)Oc3cccc(c3)Cn3cc2cn3)c2nn[nH]c2n1 (single isomer, unassigned) [Example 5, 7-{18-oxa-3,4,10-triazatetracyclo[17.3.1.1^3,^6.1^13,^1^7]pentacosa-1(23),4,6(25),13,15,17(24),19,21-octaen-7-yl}-3H-[1,2,3]triazolo[4,5-b]pyridin-5-amine] | –
